Measurements taken from publication PMC3726599, “A Metabolically-Stabilized Phosphonate Analog of Lysophosphatidic Acid Attenuates Collagen-Induced Arthritis” (PLoS ONE, 2013).

Assays:
[1] = test system: peri-tumor tissue fibroblasts, hepatocellular carcinoma cells; design: method as in PMID 21674557; conditions: cited from earlier work
[2] = test system: transformed NIH3T3 cells expressing ras and ATX; design: method as in PMID 18454946; conditions: cited from earlier work
[3] = molecular target: T1, endogenous ATX/lysoPLD activity in whole blood (Mus musculus, UniProt Q9R1E6); assay: Inhibition of ATX activity in whole blood ex vivo (TOOS assay); format: biochemical; conditions: 2 h 37°C, TOOS with 1 mM LPC
T1 construct: from tissue; host or cells: mouse plasma / whole blood
Procedure: ATX/LysoPLD activity was assessed based on the amount of choline released from LPC with the use of TOOS (N-ethyl-N-(2-hydoroxy-3-sulfopropyl)-3-methylaniline) reagent. In this assay ATX-mediated LPC-liberated choline is oxidised by choline oxidase to betaine and hydrogen peroxide (H2O2). The latter in the presence of horseradish peroxidase reacts with TOOS and 4-aminoantipyrene (4-AAP) to form a pink quinoneimine dye measured at 555 nm. […]
The liberated choline was detected by adding 100 μl of a color mix containing 4-AAP and TOOS (0.3 mM), horseradish peroxidase (5.3 UnitmL^−1) and choline oxidase (2 UnitmL^−1). Absorbance was measured at 555 nm and data were analyzed using the statistical software package Prism 4.0 (Graphpad Software Inc, La Jolla, CA, USA). For each sample and control the absorbance was plotted against time and the slope (da/min) for the linear (steady-state) portion of each reaction profile was calculated. Absorbance units were converted to nmol of choline/min/ml by comparison with a choline standard curve or by use of the extinction coefficient for the quinoneimine dye according to the following equation: [drawing 1] […]
Venous blood from wild type mouse was collected in EDTA tubes. […] IC50 values using ATX activity and LPA levels were determined graphically as described above.

LPA4 = conditions: Ca++ mobilization, CHO cells; kind of constant not given; read-out: inhibition of LPA4; cited from earlier work

IC50 [3]: 0.6 µM
SMILES: CCCCCCCCCCCCCCCC(=O)OC[C@@H](O)CC(Br)P(=O)(O)O (stereo partly drawn) [BrP-LPA, 1-bromo-3(S)-hydroxy-4-(palmitoyloxy)butyl-phosphonate]
trans-differentiation of peri-tumor fibroblasts and HCC cell proliferation, migration, invasion [1]: block the trans-differentiation of peri-tumor tissue fibroblasts and the associated proliferation, migration and invasion of hepatocellular carcinoma cells
decrease of chemotaxis [2]: 23%
IC50 (LPA4): 0.27 µM
